Each structure is given as a SMILES string. Converted amounts (≈) assume the structure as drawn. “Also recorded” adds a separate entry of the source.

Data set [1] concerns Staphylococcus aureus USA300. Put plainly: Minimal inhibitory concentration (MIC) assay. The class given is cell-based. As to conditions: B medium.
Data set [2] deals with Staphylococcus aureus VA412350. Kind of data set: Minimal inhibitory concentration (MIC) assay. In kind it is cell-based. The note with it: Staphylococcus aureus VA412350 (clinical isolate); B medium.
Data set [3] deals with Mycobacterium smegmatis mc^2 155. Kind of data set: Minimal inhibitory concentration (MIC) assay. In kind it is cell-based. The note with it: Mycolicibacterium smegmatis, MC^2155, LB medium.
Another data set deals with Acinetobacter baumannii. Put plainly: Minimal inhibitory concentration (MIC) assay. In kind it is cell-based. The note with it: B medium.
The test system of a further data set is Pseudomonas aeruginosa. Put plainly: Minimal inhibitory concentration (MIC) assay. The class given is cell-based. As to conditions: B medium.
The subject of data set [4] is Enterobacter cloacae subsp. Cloacae. Put plainly: Minimal inhibitory concentration (MIC) assay. In kind it is cell-based. As to conditions: B medium.
The test system of data set [5] is A549, HeLa, HepG2 and NIH/3T3 cells. Kind of data set: Cytotoxicity assay (MTT). The class given is cell-based, human. The note with it: 24 h incubation, various cell lines. As to the method: The MTT assay was performed in 96 well plates. A549, HeLa and HepG2 cells were seeded with 4000 cells/well, whereas NIH/3T3 cells were seeded with 2000 cells/well. Cells were grown to 30-40% confluence at 37° C. and 5% CO2 over a time span of 24 h. The medium was removed and 100 μL medium/well containing varying concentrations of the respective compound and a final DMSO concentration of 0.1% were added to the cells in triplicates and incubated at 37° C. and 5% CO2 for 24 h. 20 μL Thiazolyl blue tetrazolium bromide (5 mg/mL in PBS, Sigma Aldrich) were added to the cells and incubated at 37° C. and 5% CO2 for 4 h until complete consumption was observed. After removal of the medium, the resulting formazan was dissolved in 200 μL DMSO. Optical density was measured at 570 nm (562 nm) and background subtracted at 630 nm (620 nm) by a TECAN Infinite M200 Pro.

In data set [6] the test system is S. aureus DSM 4910 (NCTC 8325) biofilm. Put plainly: Minimum biofilm eradication concentration (MBEC) assay. The class given is cell-based. As to the method: To each well of a flat-bottomed 96-well plate (BD Biosciences, BD 351172) 200 μL of overnight culture of bacteria diluted 1:100 in media is added. Plates are incubated for 24 hours at 37° C. to establish biofilms. After 24 hours, the wells are carefully emptied by inverting the plate and gently shaking. A pre-mixed solution of media and compound stock solution is added to each well and plates are incubated at 37° C. […] 100 μL of supernatant from each well are transferred to a fresh 96-well flat bottomed plate and the OD at 595 nm is measured using a plate reader (POLARstar Omega, BMG Labtech). Concentrations of compound yielding a regrown OD of less than 0.1 correspond to the MBEC. Six replicates are completed for each concentration of compound as well as positive and negative controls. […] DMSO was used as negative control compound, Oxacillin was used as positive control compound. Levels of crystal violet retained were measured spectrophotometrically at an OD of 595 nm. Concentrations of compound yielding a regrown OD of less than 0.1 correspond to the MBEC. Six replicates are completed for each concentration of compound as well as controls. […] Levels of crystal violet retained were measured spectrophotometrically at an OD of 595 nm. […]

Another data set has as its system S. aureus. Put plainly: Murine bloodstream infection model. As to conditions: S. aureus-infected mice, 20 mg/kg, compared to vehicle control. In kind it is in vivo. As to the method:
Bacterial loads in the heart (left) and liver (right) of S. aureus-infected mice treated with 20 mg/kg of PK/[…]-1-150 (squares) or vehicle alone (circles). Each symbol represents an individual mouse. Compilation data from three independent experiments are presented. N=14 for vehicle and PK/[…]-1-150. Horizontal lines represent the mean values. **, p<0.01.

A further data set deals with MRSA ATCC 33591. Kind of data set: Neutropenic murine thigh model. In kind it is in vivo, S. aureus. The note with it: 20 mg/kg orally 30 min, 4 and 8 h after inoculation; vs sham-treated mice. As to the method:
PK/X17-1-150 (20 mg/kg) and the corresponding vehicle were administered orally after 30 min, 4 and 8 h after bacterial inoculation, whereas levofloxacin (5 mg/kg) and the corresponding vehicle were administered intraperitoneally after 2, 6 and 10 h after bacterial inoculation. N=6 for vehicle i.p., levofloxacin i.p. and for PK/X17-1-150; n=5 for vehicle p.o. Data are expressed as mean values±SD. **, p<0.01; ***, p<0.001.

For the next data set, the system named is S. aureus NCTC8325. Kind of data set: Analysis of S. aureus NCTC8325 secretome. As to conditions: 0.5×MIC (PK/X17-1-150 0.15 μM, sorafenib 1.5 μM), 1.5 h.
Data set [7] addresses T1, Signal peptidase IB enzyme (SpsB) (Staphylococcus aureus, UniProt P0A070).
T1 sequence (P0A070 1-191): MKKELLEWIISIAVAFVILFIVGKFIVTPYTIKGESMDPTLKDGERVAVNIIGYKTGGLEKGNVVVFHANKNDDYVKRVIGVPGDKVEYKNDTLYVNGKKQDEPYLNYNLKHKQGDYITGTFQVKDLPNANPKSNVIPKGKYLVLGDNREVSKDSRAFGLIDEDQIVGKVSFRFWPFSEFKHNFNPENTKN
Put plainly: SpsB FRET peptidase assay with membrane fraction. The note with it: for activity of SpsB: 100 μM compound, SpsB-containing membrane fraction of S. aureus, DMSO treated control 1.8 A·U/s; for SpsB peptidase activity (in words): FRET assay, 100 μM, compared to DMSO treated control.

As a reminder, the MIC is the smallest concentration in the dilution series that meets the test's criterion for growth inhibition. On to `O=C(Nc1ccc2c(c1)OC(F)(F)O2)Nc1ccc(Cl)c(C(F)(F)F)c1` [Example 4, 1-(4-Chloro-3-(trifluoromethyl)phenyl)-3-(2,2-difluorobenzo[d][1,3]dioxol-5-yl)urea], for which the minimal inhibitory concentration (MIC) in data set [1] is 0.3 µM (≈ 0.118 µg/mL); in [2], 0.3 µM (≈ 0.118 µg/mL); in data set [3] it was 1 µM (≈ 0.395 µg/mL); against Acinetobacter baumannii, 10 µM (≈ 3.95 µg/mL); against Pseudomonas aeruginosa, over 100 µM; in data set [4], over 100 µM. Moreover, the “cytotoxicity (MTT)” value in data set [5] is “at concentrations higher compared to the antibacterial MICs”. Besides, the biofilm eradication effect entry in data set [6] (S. aureus DSM 4910, after 20 h of compound treatment) was “strongest effect”; in [6] (S. aureus DSM 4910, after 70 h of compound treatment) it was “most potent effects”. The “reduction of bacterial load in heart” value in the data set on S. aureus stood at 2 log cfu. Further, in the data set with S. aureus, the “reduction of bacterial load in liver” value came to 2 log cfu. Moreover, in the data set with MRSA ATCC 33591, the “thigh bacterial load reduction” value turned out to be 1 log10 cfu/g thigh. The “secretome (secreted proteins) vs DMSO” value with S. aureus NCTC8325 is “Essential cell wall biosynthesis proteins are among the processed proteins; also recorded: strong increase of extracellular proteins”. Besides, the “activity of SpsB” value in data set [7] came to 4.3 A·U/s. In addition, the “SpsB peptidase activity (in words)” value in data set [7] (listed as PK/X17-1-150) is given as “increased SpsB peptidase activity; also recorded: stimulates peptidase activity”.

As for `CNC(=O)c1cc(Oc2ccc(NC(=O)Nc3ccc(Cl)c(C(F)(F)F)c3)cc2)ccn1` [Sorafenib, reference compound], the MIC is 3 µM (≈ 1.39 µg/mL) in data set [1]; 5 µM (≈ 2.32 µg/mL) in data set [2]; 6 µM (≈ 2.79 µg/mL) in data set [3]; over 100 µM against Acinetobacter baumannii; over 100 µM in the data set with Pseudomonas aeruginosa; over 100 µM in [4]. In the data set on S. aureus NCTC8325, the “secretome (secreted proteins) vs DMSO” value is listed as “SpsB substrates are secreted; also recorded: strong increase of extracellular proteins”. Further, in data set [7], the “activity of SpsB” value was 2.6 A·U/s. The “SpsB peptidase activity (in words)” value in data set [7] is “increased SpsB peptidase activity; also recorded: stimulates peptidase activity”.

The record behind these values is patent US12187696B2, “Urea motif containing compounds and derivatives thereof as antibacterial drugs” (Technische Universität München, priority 2016, dated 2025).
